ChEMBL document CHEMBL1201861, “Genomics of Drug Sensitity in Cancer screening data, Wellcome Trust Sanger Institute”

Legend:
Assay in all cases: cells
[1] = test system: Capan-2; type: functional, cell-based, Homo sapiens; conditions: Homo sapiens, Capan-2;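 note: Capan-2 cell growth inhibition, read out with a viability assay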
Description: SANGER: Inhibition of human Capan-2 cell growth in a cell viability assay.

[2] = test system: Detroit 562; type: functional, cell-based, Homo sapiens; conditions: Homo sapiens, Detroit 562;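 note: growth inhibition of human Detroit 562 cells, read out by a cell viability assay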
Description: SANGER: Inhibition of human Detroit562 cell growth in a cell viability assay.

[3] = test system: ES3; type: functional, cell-based, Homo sapiens; conditions: Homo sapiens, ES3;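 note: growth inhibition of ES3 cells, read out with a cell viability assay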
Description: SANGER: Inhibition of human ES3 cell growth in a cell viability assay.

[4] = test system: ES5; type: functional, cell-based, Homo sapiens; conditions: Homo sapiens, ES5;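 note: growth inhibition of human ES5 cells, read out by a cell viability assay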
Description: SANGER: Inhibition of human ES5 cell growth in a cell viability assay.

[5] = test system: FTC-133; type: functional, cell-based, Homo sapiens; conditions: Homo sapiens, FTC-133
[6] = test system: GAK; type: functional, cell-based, Homo sapiens; conditions: Homo sapiens, GAK;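 note: cell growth inhibition read out by a cell viability assay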
Description: SANGER: Inhibition of human GAK cell growth in a cell viability assay.

[7] = test system: JAR; type: functional, cell-based, Homo sapiens; conditions: Homo sapiens, JAR;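 note: growth inhibition of human JAR cells determined with a cell viability assay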
Description: SANGER: Inhibition of human JAR cell growth in a cell viability assay.

[8] = test system: K5; type: functional, cell-based, Homo sapiens; conditions: Homo sapiens, K5
Description: SANGER: Inhibition of human K5 cell growth in a cell viability assay.

[9] = test system: KALS-1; type: functional, cell-based, Homo sapiens; conditions: Homo sapiens, KALS-1;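 note: growth inhibition of KALS-1 cells, determined with a cell viability assay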
Description: SANGER: Inhibition of human KALS-1 cell growth in a cell viability assay.

[10] = test system: KE-37; type: functional, cell-based; conditions: Homo sapiens;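 note: growth inhibition of KE-37 cells, read out with a cell viability assay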
Description: SANGER: Inhibition of human KE-37 cell growth in a cell viability assay.

[11] = test system: KG-1; type: functional, cell-based; conditions: Homo sapiens;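 note: growth inhibition of KG-1 cells, read out by a cell viability assay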
Description: SANGER: Inhibition of human KG-1 cell growth in a cell viability assay.

[12] = test system: KGN; type: functional, cell-based, Homo sapiens; conditions: Homo sapiens, KGN;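 note: growth inhibition of KGN cells, read out with a cell viability assay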
Description: SANGER: Inhibition of human KGN cell growth in a cell viability assay.

[13] = test system: KOSC-2; type: functional, cell-based, Homo sapiens; conditions: Homo sapiens, KOSC-2;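 note: growth inhibition of KOSC-2 cells, read out by a cell viability assay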
Description: SANGER: Inhibition of human KOSC-2 cell growth in a cell viability assay.

[14] = test system: KS-1; type: functional, cell-based, Homo sapiens; conditions: Homo sapiens, KS-1;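 note: growth inhibition of KS-1 cells, read out with a cell viability assay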
Description: SANGER: Inhibition of human KS-1 cell growth in a cell viability assay.

[15] = test system: KY821; type: functional, cell-based; conditions: Homo sapiens;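 note: growth inhibition of human KY821 cells, read out by a cell viability assay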
Description: SANGER: Inhibition of human KY821 cell growth in a cell viability assay.

[16] = test system: LB771-HNC; type: functional, cell-based, Homo sapiens; conditions: Homo sapiens, LB771-HNC;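 note: growth inhibition of LB771-HNC human cells, read out with a cell viability assay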
Description: SANGER: Inhibition of human LB771-HNC cell growth in a cell viability assay.

[17] = test system: LNCaP-Clone-FGC; type: functional, cell-based, Homo sapiens; conditions: Homo sapiens, LNCaP-Clone-FGC
Description: SANGER: Inhibition of human LNCaP-Clone-FGC cell growth in a cell viability assay.

[18] = test system: LS-123; type: functional, cell-based, Homo sapiens; conditions: Homo sapiens, LS-123
Description: SANGER: Inhibition of human LS-123 cell growth in a cell viability assay.

[19] = test system: MDA-MB-361; type: functional, cell-based, Homo sapiens; conditions: Homo sapiens, MDA-MB-361
[20] = test system: MDA-MB-453; type: functional, cell-based, Homo sapiens; conditions: Homo sapiens, MDA-MB-453
Description: SANGER: Inhibition of human MDA-MB-453 cell growth in a cell viability assay.

[21] = test system: MKN-28; type: functional, cell-based, Homo sapiens; conditions: Homo sapiens, MKN-28;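 note: cell viability assay read-out, IC50 reflects suppression of growth of human MKN-28 cells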
Description: SANGER: Inhibition of human MKN28 cell growth in a cell viability assay.

[22] = test system: MKN-45; type: functional, cell-based, Homo sapiens; conditions: Homo sapiens, MKN-45;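 note: growth inhibition of human MKN-45 cells, measured with a cell viability assay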
Description: SANGER: Inhibition of human MKN45 cell growth in a cell viability assay.

[23] = test system: MZ7-mel; type: functional, cell-based, Homo sapiens; conditions: Homo sapiens, MZ7-mel;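 note: growth inhibition of human MZ7-mel cells, measured by a cell viability assay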
Description: SANGER: Inhibition of human MZ7-mel cell growth in a cell viability assay.

[24] = test system: NCI-H2170; type: functional, cell-based, Homo sapiens; conditions: Homo sapiens, NCI-H2170;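 note: cell viability assay measuring growth inhibition of human NCI-H2170 cancer cells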
Description: SANGER: Inhibition of human NCI-H2170 cell growth in a cell viability assay.

[25] = test system: NCI-H23; type: functional, cell-based, Homo sapiens; conditions: Homo sapiens, NCI-H23;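 note: cell viability assay measuring growth inhibition of NCI-H23 cells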
Description: SANGER: Inhibition of human NCI-H23 cell growth in a cell viability assay.

[26] = test system: NCI-H747; type: functional, cell-based; conditions: Homo sapiens;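 note: growth inhibition of human NCI-H747 cells, read out by a cell viability assay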
Description: SANGER: Inhibition of human NCI-H747 cell growth in a cell viability assay.

[27] = test system: NKM-1; type: functional, cell-based; conditions: Homo sapiens;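 note: growth inhibition of NKM-1 cells, read out with a cell viability assay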
Description: SANGER: Inhibition of human NKM-1 cell growth in a cell viability assay.

[28] = test system: NOMO-1; type: functional, cell-based; conditions: Homo sapiens;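 note: growth inhibition of human NOMO-1 cells measured by a cell viability assay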
Description: SANGER: Inhibition of human NOMO-1 cell growth in a cell viability assay.

[29] = test system: ONS-76; type: functional, cell-based, Homo sapiens; conditions: Homo sapiens, ONS-76;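 note: growth inhibition of human ONS-76 cells, read out with a cell viability assay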
Description: SANGER: Inhibition of human ONS-76 cell growth in a cell viability assay.

[30] = test system: P12-Ichikawa; type: functional, cell-based; conditions: Homo sapiens
[31] = test system: PC-14; type: functional, cell-based, Homo sapiens; conditions: Homo sapiens, PC-14;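 note: cell viability assay measuring inhibition of PC-14 cell growth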
Description: SANGER: Inhibition of human PC-14 cell growth in a cell viability assay.

[32] = test system: RH-1; type: functional, cell-based, Homo sapiens; conditions: Homo sapiens, RH-1;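 note: growth inhibition of human RH-1 cells, read out with a cell viability assay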
Description: SANGER: Inhibition of human RH-1 cell growth in a cell viability assay.

[33] = test system: RKO; type: functional, cell-based, Homo sapiens; conditions: Homo sapiens, RKO;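 note: growth inhibition of human RKO cells, read out with a cell viability assay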
Description: SANGER: Inhibition of human RKO cell growth in a cell viability assay.

[34] = test system: RPMI-7951; type: functional, cell-based, Homo sapiens; conditions: Homo sapiens, RPMI-7951
Description: SANGER: Inhibition of human RPMI-7951 cell growth in a cell viability assay.

[35] = test system: RT-112; type: functional, cell-based, Homo sapiens; conditions: Homo sapiens, RT-112
Description: SANGER: Inhibition of human RT-112 cell growth in a cell viability assay.

[36] = test system: RXF 393; type: functional, cell-based; conditions: Homo sapiens;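 note: growth inhibition of human RXF 393 cells, read out with a cell viability assay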
Description: SANGER: Inhibition of human RXF393 cell growth in a cell viability assay.

[37] = test system: SAS; type: functional, cell-based, Homo sapiens; conditions: Homo sapiens, SAS;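 note: growth inhibition of SAS cells, read out with a cell viability assay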
Description: SANGER: Inhibition of human SAS cell growth in a cell viability assay.

[38] = test system: SCC-25; type: functional, cell-based, Homo sapiens; conditions: Homo sapiens, SCC-25;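 note: growth inhibition of SCC-25 cells, measured with a cell viability assay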
Description: SANGER: Inhibition of human SCC-25 cell growth in a cell viability assay.

[39] = test system: SCC-9; type: functional, cell-based, Homo sapiens; conditions: Homo sapiens, SCC-9;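 note: Read-out is a cell viability assay, with values giving inhibition of cell growth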
Description: SANGER: Inhibition of human SCC-9 cell growth in a cell viability assay.

[40] = test system: SF-268; type: functional, cell-based, Homo sapiens; conditions: Homo sapiens, SF-268;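 note: growth inhibition of SF-268 cells determined with a cell viability assay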
Description: SANGER: Inhibition of human SF268 cell growth in a cell viability assay.

[41] = test system: SW780; type: functional, cell-based, Homo sapiens; conditions: Homo sapiens, SW780;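 note: growth inhibition of the cells, read out with a cell viability assay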
Description: SANGER: Inhibition of human SW780 cell growth in a cell viability assay.

[42] = test system: T47D; type: functional, cell-based, Homo sapiens; conditions: Homo sapiens, T47D;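 note: growth inhibition of human T47D cells, measured with a cell viability assay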
Description: SANGER: Inhibition of human T47D cell growth in a cell viability assay.

[43] = test system: A 172; type: functional, cell-based, Homo sapiens; conditions: Homo sapiens, A 172;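 note: growth inhibition of A172 cells, measured with a cell viability readout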
Description: SANGER: Inhibition of human A172 cell growth in a cell viability assay.

[44] = test system: AM-38; type: functional, cell-based, Homo sapiens; conditions: Homo sapiens, AM-38;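 note: growth inhibition of AM-38 cells of human origin, read out by a cell viability assay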
Description: SANGER: Inhibition of human AM-38 cell growth in a cell viability assay.

[45] = test system: BHT-101; type: functional, cell-based, Homo sapiens; conditions: Homo sapiens, BHT-101
Description: SANGER: Inhibition of human BHT-101 cell growth in a cell viability assay.

[46] = test system: BHY; type: functional, cell-based, Homo sapiens; conditions: Homo sapiens, BHY;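 note: cell growth inhibition read out by a viability assay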
Description: SANGER: Inhibition of human BHY cell growth in a cell viability assay.

[47] = test system: CAL-85-1; type: functional, cell-based; conditions: Homo sapiens;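 note: growth inhibition of human CAL-85-1 cells, read out with a cell viability assay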
Description: SANGER: Inhibition of human CAL-85-1 cell growth in a cell viability assay.

[48] = test system: TE-10; type: functional, cell-based, Homo sapiens; conditions: Homo sapiens, TE-10;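 note: growth inhibition of TE-10 cells, measured by a cell viability assay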
Description: SANGER: Inhibition of human TE-10 cell growth in a cell viability assay.

[49] = test system: VMRC-RCZ; type: functional, cell-based; conditions: Homo sapiens;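 note: growth inhibition measured with a cell viability assay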
Description: SANGER: Inhibition of human VMRC-RCZ cell growth in a cell viability assay.

[50] = test system: CAS-1; type: functional, cell-based, Homo sapiens; conditions: Homo sapiens, CAS-1;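 note: growth inhibition of CAS-1 cells, measured with a cell viability assay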
Description: SANGER: Inhibition of human CAS-1 cell growth in a cell viability assay.

[51] = test system: COLO-678; type: functional, cell-based, Homo sapiens; conditions: Homo sapiens, COLO-678
Description: SANGER: Inhibition of human COLO-678 cell growth in a cell viability assay.

## CCOc1nc(NC(=O)Cc2cc(OC)ccc2OC)cc(N)c1C#N
[1]
  IC50: > 10 µM
[2]
  IC50: > 10 µM
[3]
  IC50: > 10 µM
[4]
  IC50: > 10 µM
[5]
  IC50: > 10 µM
[6]
  IC50: > 10 µM
[7]
  IC50: > 10 µM
[8]
  IC50: > 10 µM
[9]
  IC50: > 10 µM
[10]
  IC50: > 10 µM
[11]
  IC50: > 10 µM
[12]
  IC50: > 10 µM
[13]
  IC50: > 10 µM
[14]
  IC50: > 10 µM
[15]
  IC50: > 10 µM
[16]
  IC50: > 10 µM
[17]
  IC50: > 10 µM
[18]
  IC50: > 10 µM
[19]
  IC50: > 10 µM
[20]
  IC50: > 10 µM
[21]
  IC50: > 10 µM
[22]
  IC50: > 10 µM
[23]
  IC50: > 10 µM
[24]
  IC50: > 10 µM
[25]
  IC50: > 10 µM
[26]
  IC50: > 10 µM
[27]
  IC50: > 10 µM
[28]
  IC50: > 10 µM
[29]
  IC50: > 10 µM
[30]
  IC50: > 10 µM
[31]
  IC50: > 10 µM
[32]
  IC50: > 10 µM
[33]
  IC50: > 10 µM
[34]
  IC50: > 10 µM
[35]
  IC50: > 10 µM
[36]
  IC50: > 10 µM
[37]
  IC50: > 10 µM
[38]
  IC50: > 10 µM
[39]
  IC50: > 10 µM
[40]
  IC50: > 10 µM
[41]
  IC50: > 10 µM
[42]
  IC50: > 10 µM
[43]
  IC50: > 10 µM
[44]
  IC50: > 10 µM
[45]
  IC50: > 10 µM
[46]
  IC50: > 10 µM
[47]
  IC50: > 10 µM
[48]
  IC50: > 10 µM
[49]
  IC50: > 10 µM
[50]
  IC50: > 10 µM
[51]
  IC50: > 10 µM

## CC(=O)O[C@@H]1[C@@H](OC(C)=O)[C@@H](O)[C@H](Oc2c(-c3ccc(O)cc3)oc3cc(O)cc(O)c3c2=O)O[C@H]1C
[1]
  IC50: > 10 µM
[2]
  IC50: > 10 µM
[3]
  IC50: > 10 µM
[4]
  IC50: > 10 µM
[5]
  IC50: > 10 µM
[6]
  IC50: > 10 µM
[7]
  IC50: > 10 µM
[8]
  IC50: > 10 µM
[9]
  IC50: > 10 µM
[10]
  IC50: > 10 µM
[11]
  IC50: > 10 µM
[12]
  IC50: > 10 µM
[13]
  IC50: > 10 µM
[14]
  IC50: > 10 µM
[15]
  IC50: > 10 µM
[16]
  IC50: > 10 µM
[17]
  IC50: > 10 µM
[18]
  IC50: > 10 µM
[19]
  IC50: > 10 µM
[20]
  IC50: > 10 µM
[21]
  IC50: > 10 µM
[22]
  IC50: > 10 µM
[23]
  IC50: > 10 µM
[24]
  IC50: > 10 µM
[25]
  IC50: > 10 µM
[26]
  IC50: > 10 µM
[27]
  IC50: > 10 µM
[28]
  IC50: > 10 µM
[29]
  IC50: > 10 µM
[30]
  IC50: > 10 µM
[31]
  IC50: > 10 µM
[32]
  IC50: > 10 µM
[33]
  IC50: > 10 µM
[34]
  IC50: > 10 µM
[35]
  IC50: > 10 µM
[36]
  IC50: > 10 µM
[37]
  IC50: > 10 µM
[38]
  IC50: > 10 µM
[39]
  IC50: > 10 µM
[40]
  IC50: > 10 µM
[41]
  IC50: > 10 µM
[42]
  IC50: > 10 µM
[43]
  IC50: 4.77 µM
[44]
  IC50: > 10 µM
[45]
  IC50: > 10 µM
[46]
  IC50: > 10 µM
[47]
  IC50: > 10 µM
[48]
  IC50: > 10 µM
[49]
  IC50: > 10 µM
[50]
  IC50: > 10 µM
[51]
  IC50: > 10 µM
